Laboratory results: US4698352A, “4-oxo-1,4-dihydronicotinic acid derivatives, salts thereof, and antibacterial agents containing the same” (Toyama Chemical Co., Ltd., priority 1982, dated 1987)
≈ marks a conversion by molar mass, not a printed value. Like-named read-outs stand apart in the source and are kept apart here.

What was measured:
Assay in all cases: Antibacterial activity (MIC), agar dilution
Assay type in all cases: cell-based
Ps. aeruginosa GN3379* = details: Pseudomonas aeruginosa, 20 h; Ps. aeruginosa GN3379, penicillinase-producing; 10^6 cells per ml; read-out: MIC
From the text: (§1) The amount of bacteria inoculated was 10^4 cells per plate (10^6 cells per ml).
(§2) * Penicillinase-producing bacteria

St. aureus F-137* = details: Staphylococcus aureus, 20 h
From the text: as §1, §2

E. coli TK-3* = details: Escherichia coli, 20 h
From the text: as §1, §2

Kl. pneumoniae Y-4* = details: Klebsiella pneumoniae, 20 h, Kl. pneumoniae Y-4, penicillinase-producing; 10^6 cells per ml; read-out: MIC
From the text: as §1, §2

Pro. vulgaris GN76** = details: Proteus vulgaris
From the text: as §1
(§3) ** Cephalospolinase-producing bacteria

Ps. aeruginosa GN918** = details: Pseudomonas aeruginosa, 20 h; Ps. aeruginosa GN918, cephalospolinase-producing; 10^6 cells per ml; read-out: MIC
From the text: as §1, §3

E. coli GN5482** = details: Escherichia coli, 20 h; E. coli GN5482, cephalospolinase-producing; 10^6 cells per ml; read-out: MIC
From the text: as §1, §3

Aci. antitratus A-6 = details: 20 h, Aci. antitratus A-6; 10^6 cells per ml; 37° C., 20 hours; read-out: MIC
From the text: as §1

Kl. pneumoniae Y-50 = details: Klebsiella pneumoniae, Y50, 20 h, 10^6 cells per ml, 37° C., read-out: MIC
From the text: as §1

E. coli NIHJ JC-2 = details: Escherichia coli, NIHJJC2, 20 h
From the text: as §1

Pro. morganii T-216 = details: Morganella morganii, 37° C.
From the text: as §1

Ps. aeruginosa S-68 = details: Pseudomonas aeruginosa
From the text: as §1

Kl. pneumoniae Y-41 = details: Klebsiella pneumoniae, Y41, 10^6 cells per ml, 37° C., 20 hours, read-out: MIC
From the text: as §1

E. coli TK-111 = details: Escherichia coli, TK111, 20 h, E. coli TK-111; 10^6 cells per ml; 37° C., 20 hours; read-out: MIC
From the text: as §1

Ps. aeruginosa IFO3445 = details: Pseudomonas aeruginosa; Ps. aeruginosa IFO3445; 10^6 cells per ml; 37° C., 20 hours; read-out: MIC
From the text: as §1

St. aureus FDA209P = details: Staphylococcus aureus, FDA209P, 20 h
From the text: as §1

Pro. vulgaris GN3027 = details: Proteus vulgaris, GN3027, 20 h, Pro. vulgaris GN3027; 10^6 cells per ml; 37° C., 20 hours; read-out: MIC
From the text: as §1

Ent. cloacae IID977 = details: Enterobacter cloacae, IID977, 20 h
From the text: as §1

Pro. mirabilis T-111 = details: Proteus mirabilis, 37° C.
From the text: as §1

[1] = 20 h, Pro. vulgaris GN76, cephalospolinase-producing, 10^6 cells per ml, read-out: MIC
[2] = E. coli NIHJ JC-2, 10^6 cells per ml, 37° C., 20 hours, read-out: MIC
[3] = S68, Ps. aeruginosa S-68, 10^6 cells per ml, 37° C., 20 hours, read-out: MIC
[4] = E. coli TK-3, penicillinase-producing, 10^6 cells per ml, read-out: MIC
[5] = T216, 10^6 cells per ml, 20 hours, read-out: MIC
[6] = St. aureus FDA209P, 10^6 cells per ml, 37° C., 20 hours, read-out: MIC
[7] = St. aureus F-137, penicillinase-producing, 10^6 cells per ml, read-out: MIC
[8] = T111, 10^6 cells per ml, 20 hours, read-out: MIC
[9] = Ent. cloacae IID977, 10^6 cells per ml, 37° C., 20 hours, read-out: MIC

| Structure (SMILES) | MIC (Ps. aeruginosa GN3379*) | MIC (St. aureus F-137*) | MIC (E. coli TK-3*) | MIC (Kl. pneumoniae Y-4*) | MIC (Ps. aeruginosa GN918**) | MIC (E. coli GN5482**) | MIC (Aci. antitratus A-6) | MIC (Kl. pneumoniae Y-50) | MIC (E. coli NIHJ JC-2; [2]) | MIC (Ps. aeruginosa S-68; [3]) | MIC (Kl. pneumoniae Y-41) | MIC (E. coli TK-111) | MIC (Ps. aeruginosa IFO3445) | MIC (St. aureus FDA209P) | MIC (Pro. vulgaris GN3027) | MIC (Ent. cloacae IID977) | MIC (Pro. mirabilis T-111; T111, 20 h, 10^6 cells per ml) | MIC (E. coli TK-3*; [4]) | MIC (Pro. vulgaris GN76**; GN76, 20 h) | MIC (Pro. morganii T-216; [5]) | further results |
| --- | --- | --- | --- | --- | --- | --- | --- | --- | --- | --- | --- | --- | --- | --- | --- | --- | --- | --- | --- | --- | --- |
| Cc1ccc(-c2cc(=O)c(C(=O)O)cn2-c2ccc(F)cc2)s1 | 25 µg/mL (≈ 75.9 µM) | 3.13 µg/mL (≈ 9.5 µM) | 3.13 µg/mL (≈ 9.5 µM) | 12.5 µg/mL (≈ 38 µM) | 50 µg/mL (≈ 152 µM) | 0.2 µg/mL (≈ 0.607 µM) | 1.56 µg/mL (≈ 4.74 µM) | 3.13 µg/mL (≈ 9.5 µM) | 1.56 µg/mL (≈ 4.74 µM) | 25 µg/mL (≈ 75.9 µM) | 6.25 µg/mL (≈ 19 µM) | 0.78 µg/mL (≈ 2.37 µM) | 50 µg/mL (≈ 152 µM) | 3.13 µg/mL (≈ 9.5 µM) | 0.2 µg/mL (≈ 0.607 µM) | 3.13 µg/mL (≈ 9.5 µM) | 6.25 µg/mL (≈ 19 µM) | – | – | – | MIC (Pro. vulgaris GN76**; [1]): 1.56 µg/mL (≈ 4.74 µM); MIC (Pro. morganii T-216; T216, 20 h, 10^6 cells per ml): 3.13 µg/mL (≈ 9.5 µM) |
| O=C(O)c1cn(-c2ccc(F)cc2)c(-c2ccc(Br)s2)cc1=O | 25 µg/mL (≈ 63.4 µM) | 3.13 µg/mL (≈ 7.94 µM) | – | 25 µg/mL (≈ 63.4 µM) | 100 µg/mL (≈ 254 µM) | 0.39 µg/mL (≈ 0.989 µM) | 1.56 µg/mL (≈ 3.96 µM) | 3.13 µg/mL (≈ 7.94 µM) | – | 25 µg/mL (≈ 63.4 µM) | 12.5 µg/mL (≈ 31.7 µM) | 1.56 µg/mL (≈ 3.96 µM) | 50 µg/mL (≈ 127 µM) | – | 0.39 µg/mL (≈ 0.989 µM) | 12.5 µg/mL (≈ 31.7 µM) | 12.5 µg/mL (≈ 31.7 µM) | 6.25 µg/mL (≈ 15.9 µM) | 3.13 µg/mL (≈ 7.94 µM) | 6.25 µg/mL (≈ 15.9 µM) | MIC (E. coli NIHJ JC-2): 3.13 µg/mL (≈ 7.94 µM); MIC (St. aureus FDA209P; [6]): 1.56 µg/mL (≈ 3.96 µM) |
| CN(C)c1ccc(-c2cc(=O)c(C(=O)O)cn2-c2ccccc2F)cc1 | > 100 µg/mL | – | 3.13 µg/mL (≈ 8.88 µM) | 25 µg/mL (≈ 70.9 µM) | > 100 µg/mL | 0.39 µg/mL (≈ 1.11 µM) | 1.56 µg/mL (≈ 4.43 µM) | 3.13 µg/mL (≈ 8.88 µM) | 1.56 µg/mL (≈ 4.43 µM) | 25 µg/mL (≈ 70.9 µM) | 6.25 µg/mL (≈ 17.7 µM) | 0.78 µg/mL (≈ 2.21 µM) | > 100 µg/mL | – | 0.78 µg/mL (≈ 2.21 µM) | 6.25 µg/mL (≈ 17.7 µM) | – | – | 3.13 µg/mL (≈ 8.88 µM) | – | MIC (St. aureus F-137*; [7]): 1.56 µg/mL (≈ 4.43 µM); MIC (Pro. morganii T-216; T216, 20 h, 10^6 cells per ml): 6.25 µg/mL (≈ 17.7 µM); MIC (St. aureus FDA209P; [6]): 1.56 µg/mL (≈ 4.43 µM); MIC (Pro. mirabilis T-111; [8]): 25 µg/mL (≈ 70.9 µM) |
| O=C(O)c1cn(-c2ccc(F)cc2)c(-c2ccc(Cl)s2)cc1=O | 25 µg/mL (≈ 71.5 µM) | 3.13 µg/mL (≈ 8.95 µM) | – | 25 µg/mL (≈ 71.5 µM) | 100 µg/mL (≈ 286 µM) | 0.39 µg/mL (≈ 1.12 µM) | 1.56 µg/mL (≈ 4.46 µM) | 3.13 µg/mL (≈ 8.95 µM) | – | 25 µg/mL (≈ 71.5 µM) | 12.5 µg/mL (≈ 35.7 µM) | 1.56 µg/mL (≈ 4.46 µM) | 50 µg/mL (≈ 143 µM) | 3.13 µg/mL (≈ 8.95 µM) | 0.39 µg/mL (≈ 1.12 µM) | 12.5 µg/mL (≈ 35.7 µM) | 12.5 µg/mL (≈ 35.7 µM) | 6.25 µg/mL (≈ 17.9 µM) | 3.13 µg/mL (≈ 8.95 µM) | 6.25 µg/mL (≈ 17.9 µM) | MIC (E. coli NIHJ JC-2): 3.13 µg/mL (≈ 8.95 µM) |
| COc1ccc(-c2cc(=O)c(C(=O)O)cn2-c2ccc(F)cc2)cc1 | 25 µg/mL (≈ 73.7 µM) | 3.13 µg/mL (≈ 9.22 µM) | 3.13 µg/mL (≈ 9.22 µM) | 12.5 µg/mL (≈ 36.8 µM) | 50 µg/mL (≈ 147 µM) | 0.2 µg/mL (≈ 0.589 µM) | 1.56 µg/mL (≈ 4.6 µM) | 3.13 µg/mL (≈ 9.22 µM) | 1.56 µg/mL (≈ 4.6 µM) | 25 µg/mL (≈ 73.7 µM) | 12.5 µg/mL (≈ 36.8 µM) | 0.78 µg/mL (≈ 2.3 µM) | 25 µg/mL (≈ 73.7 µM) | 3.13 µg/mL (≈ 9.22 µM) | 0.39 µg/mL (≈ 1.15 µM) | – | 12.5 µg/mL (≈ 36.8 µM) | – | 3.13 µg/mL (≈ 9.22 µM) | 6.25 µg/mL (≈ 18.4 µM) | MIC (Ent. cloacae IID977; [9]): 6.25 µg/mL (≈ 18.4 µM) |
| CNc1ccc(-c2cc(=O)c(C(=O)O)cn2-c2ccc(F)cc2)cc1C | 25 µg/mL (≈ 70.9 µM) | – | – | 12.5 µg/mL (≈ 35.5 µM) | 50 µg/mL (≈ 142 µM) | 0.2 µg/mL (≈ 0.568 µM) | 0.78 µg/mL (≈ 2.21 µM) | 1.56 µg/mL (≈ 4.43 µM) | – | – | 6.25 µg/mL (≈ 17.7 µM) | 0.39 µg/mL (≈ 1.11 µM) | 50 µg/mL (≈ 142 µM) | 1.56 µg/mL (≈ 4.43 µM) | 0.78 µg/mL (≈ 2.21 µM) | 6.25 µg/mL (≈ 17.7 µM) | 12.5 µg/mL (≈ 35.5 µM) | 3.13 µg/mL (≈ 8.88 µM) | – | – | MIC (St. aureus F-137*; [7]): 0.78 µg/mL (≈ 2.21 µM); MIC (Pro. vulgaris GN76**; [1]): 3.13 µg/mL (≈ 8.88 µM); MIC (E. coli NIHJ JC-2): 1.56 µg/mL (≈ 4.43 µM); MIC (Pro. morganii T-216; T216, 20 h, 10^6 cells per ml): 6.25 µg/mL (≈ 17.7 µM); MIC (Ps. aeruginosa S-68; S68, 20 h): 12.5 µg/mL (≈ 35.5 µM) |
| CN(C)c1ccc(-c2cc(=O)c(C(=O)O)cn2-c2ccc(F)cc2F)cc1 | 25 µg/mL (≈ 67.5 µM) | – | – | 6.25 µg/mL (≈ 16.9 µM) | 12.5 µg/mL (≈ 33.8 µM) | 0.1 µg/mL (≈ 0.27 µM) | 0.39 µg/mL (≈ 1.05 µM) | 0.78 µg/mL (≈ 2.11 µM) | 0.78 µg/mL (≈ 2.11 µM) | 12.5 µg/mL (≈ 33.8 µM) | 6.25 µg/mL (≈ 16.9 µM) | 0.2 µg/mL (≈ 0.54 µM) | 12.5 µg/mL (≈ 33.8 µM) | – | 0.2 µg/mL (≈ 0.54 µM) | – | – | 3.13 µg/mL (≈ 8.45 µM) | – | 3.13 µg/mL (≈ 8.45 µM) | MIC (St. aureus F-137*; [7]): 0.1 µg/mL (≈ 0.27 µM); MIC (Pro. vulgaris GN76**; [1]): 0.78 µg/mL (≈ 2.11 µM); MIC (St. aureus FDA209P; [6]): 0.2 µg/mL (≈ 0.54 µM); MIC (Ent. cloacae IID977; [9]): 3.13 µg/mL (≈ 8.45 µM); MIC (Pro. mirabilis T-111; [8]): 3.13 µg/mL (≈ 8.45 µM) |
